Assay: Dissolution / microcapsule releasing test in phosphate buffer pH 7.2, 100 rpm, UV spectrophotometer
Assay type: physicochemical
Description: The test was carried out in phosphate buffer at pH 7.2 (obtained by dissolving 6.8 g of KH2 PO4 and 1.4 g of NaOH in 1 litre of demineralised water) at 100 rpm for the microcapsule dissolution test and 50 rpm for the tablet dissolution test according to the method described in European Pharmacopoeia, Ed. 4.4 of the April 2003. • dissolution in phosphate buffer at pH 7.2 (obtained by dissolving 6.8 g of KH2PO4 and 1.4 g of NaOH in 1 litre of demineralised water) at 100 rpm; the average of 5 tests has given the following results: • 30.1% after 5 minutes, 58.6% after 10 minutes, 71.0% after 15 minutes, 78.8% after 20 minutes, 86.9% after 30 minutes, • palatability: the palatability test was carried out as indicated above administering 200 mg of Ibuprofen BP 80 to each individual. […] The microcapsules obtained in Examples 1 to 3 (MC1, MC2 and MC3) were subjected to the releasing test in phosphate buffer by means of a UV spectrophotometer. In order to assist comparison the results obtained on AI as such in the same test are shown in the bottom line (see previous Experimental Part).

CC(C)Cc1ccc(C(C)C(=O)O)cc1 (centres unmarked) [Ibuprofen BP 80, Ibuprofen]
AI released, 0 min (0 min): 0% | AI released, 5 min: 30.1% | AI released, 5 min (listed as AI): 30.10% | AI released, 10 min: 58.6% | AI released, 10 min (listed as AI): 58.60% | AI released, 15 min: 71.0% | AI released, 15 min (listed as AI): 71.00% | AI released, 20 min: 78.8% | AI released, 20 min (listed as AI): 78.80% | AI released, 30 min: 86.9% | AI released, 30 min (listed as AI): 86.90%

Source: patent publication US20090074867A1, “ORALLY DISPERSIBLE PHARMACEUTICAL COMPOSITION AND PROCESS FOR THE PREPARATION THEREOF” (priority 2004, published 2009)
